Patent US20040186081A1, “Naaladase inhibitors for treating opioid tolerance” (Guilford Pharmaceuticals Inc., priority 2003, published 2004)
Entries after “also recorded” stand apart in the source; their conditions may differ. Peptide text beside a SMILES is read from it.

Assays:
[1] = in vivo; cited from earlier work
[2] = system: C57/BL mice; test: Acute effects in the tail-flick test (Experiment 2); assay type: in vivo
Description: (§1) Male C57/BL mice (IMP, Lodz, Poland), 22-24 g of body weight were group-housed in the standard laboratory cages and kept in a temperature-controlled colony room (21+2° C.) with a 12-hr light/dark cycle (light on: 07:00, off: 19:00). Commercial food and tap water were available ad libitum. Each experimental group consisted of 7-28 mice per treatment. All mice were used only once.
(§2) The intensity of the heat stimulus was adjusted so that the baseline tail-flick latency was ˜3 s. […] Each response assessment consisted of two separate measurements taken at different portions of the tail (spaced by 1.5-2 cm) and separated by 15 s. The mean of these responses was used for subsequent comparisons.

[3] = system: over 100 different receptors, ion channels, transporters, and enzymes including NMDA, AMPA, metabotropic glutamate receptors and glutamate transporters; settings: cited from earlier work
[4] = system: C57/BL mice; test: animal or person; assay type: in vivo; settings: for ED50: Mus musculus, sc
Description: as §1, §2

[5] = biological target: T1, NAALADase (Homo sapiens, UniProt Q04609); test: In vitro inhibition of NAALADase activity; assay type: biochemical; settings: for IC50: read-out: IC50
[6] = biological target: T1, NAALADase; settings: read-out: Km of NAALADase for NAAG; cited from earlier work
[7] = biological target: mGluRII receptors (mGluR3) (Homo sapiens, UniProt Q14832); settings: read-out: EC50 as direct agonist at mGluRII receptors; cited from earlier work
mGluRII receptors (mGluR3), sequence (Q14832 23-879): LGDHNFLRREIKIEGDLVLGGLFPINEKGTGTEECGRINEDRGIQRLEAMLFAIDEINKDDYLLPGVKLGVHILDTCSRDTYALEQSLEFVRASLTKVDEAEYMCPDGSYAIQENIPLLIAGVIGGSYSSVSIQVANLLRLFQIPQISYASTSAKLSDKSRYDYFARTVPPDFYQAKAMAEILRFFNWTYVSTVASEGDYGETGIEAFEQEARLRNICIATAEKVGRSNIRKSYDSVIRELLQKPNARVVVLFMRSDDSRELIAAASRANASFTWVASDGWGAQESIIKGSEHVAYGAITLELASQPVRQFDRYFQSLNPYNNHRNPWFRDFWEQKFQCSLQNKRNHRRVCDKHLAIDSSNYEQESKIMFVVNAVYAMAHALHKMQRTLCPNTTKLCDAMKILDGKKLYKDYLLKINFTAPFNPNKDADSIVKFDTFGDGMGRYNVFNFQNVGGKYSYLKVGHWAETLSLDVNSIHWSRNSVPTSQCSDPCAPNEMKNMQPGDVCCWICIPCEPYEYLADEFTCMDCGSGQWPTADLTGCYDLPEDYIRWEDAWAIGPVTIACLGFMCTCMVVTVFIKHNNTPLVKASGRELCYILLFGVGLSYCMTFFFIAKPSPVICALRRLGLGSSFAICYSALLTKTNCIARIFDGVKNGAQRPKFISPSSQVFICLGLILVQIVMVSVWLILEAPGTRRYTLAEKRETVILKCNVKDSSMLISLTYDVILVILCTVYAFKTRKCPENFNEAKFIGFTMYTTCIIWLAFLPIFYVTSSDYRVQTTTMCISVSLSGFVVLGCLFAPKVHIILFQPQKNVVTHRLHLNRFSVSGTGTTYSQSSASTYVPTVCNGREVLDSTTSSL

T1 sequence (Q04609 whole entry): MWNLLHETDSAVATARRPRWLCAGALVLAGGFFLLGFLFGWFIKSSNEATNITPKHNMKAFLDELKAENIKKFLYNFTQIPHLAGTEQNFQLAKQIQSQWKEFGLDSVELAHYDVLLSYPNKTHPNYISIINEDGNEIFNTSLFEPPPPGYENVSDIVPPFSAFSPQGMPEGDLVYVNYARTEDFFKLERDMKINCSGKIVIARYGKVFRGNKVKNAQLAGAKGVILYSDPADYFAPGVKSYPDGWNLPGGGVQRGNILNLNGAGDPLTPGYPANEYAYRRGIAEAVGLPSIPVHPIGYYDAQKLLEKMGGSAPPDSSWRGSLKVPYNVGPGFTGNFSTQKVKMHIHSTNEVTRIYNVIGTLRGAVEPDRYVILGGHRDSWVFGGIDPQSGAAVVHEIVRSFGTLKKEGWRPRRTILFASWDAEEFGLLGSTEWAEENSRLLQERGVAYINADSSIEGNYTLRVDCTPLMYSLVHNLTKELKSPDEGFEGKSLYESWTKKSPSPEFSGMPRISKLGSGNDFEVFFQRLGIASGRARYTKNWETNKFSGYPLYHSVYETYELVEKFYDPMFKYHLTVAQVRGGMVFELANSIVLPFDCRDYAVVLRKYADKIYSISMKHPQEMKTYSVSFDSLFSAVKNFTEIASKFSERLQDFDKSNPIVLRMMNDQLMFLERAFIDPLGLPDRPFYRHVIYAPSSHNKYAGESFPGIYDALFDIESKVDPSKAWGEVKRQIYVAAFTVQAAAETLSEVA

In the case of `NC1(C(=O)O)CCC2C(C(=O)O)C21` (single isomer, unassigned; (+)) [LY354740, (+)-2-aminobicyclo [3,1,0] hexane-2,6-dicarboxylic acid], the “development of morphine tolerance” value [1] is given as “inhibit the development of morphine tolerance”.

For `O=C(O)CCC(CP(=O)(O)O)C(=O)O` (stereo not drawn) [2-PMPA, 2-phosphonomethyl pentanedioic acid], the “effect on antinociceptive effects of morphine” value ([2]; 100 mg/kg 2-PMPA i.p. 30 min before 1.5 or 3 mg/kg morphine s.c.) is listed as “did not affect antinociceptive effects; also recorded: did not differ”, the “tail-flick responses (AUC) compared to placebo+placebo” value ([2]; 100 mg/kg of 2-PMPA i.p. + placebo) is listed as “did not affect tail-flick responses; also recorded: did not differ from placebo+placebo treatment” and the “affinity for over 100 different receptors, ion channels, transporters, and enzymes” value [3] is listed as “no apparent affinity”. For the same compound, the “effect on the development of morphine tolerance” value ([4]; 2-PMPA 50 or 100 mg/kg given prior to each dose of morphine) was “attenuated the development of morphine tolerance”.

With `O=C(O)c1ccc(Cl)c(CC(CCCS)C(=O)O)c1` (stereo not drawn) [5-carboxy-2-chloro-alpha-(3-mercaptopropyl)-benzenepropanoic acid] the IC50 [5] was 2.09 nM.

`O=C(O)c1ccc(F)c(CC(CCCS)C(=O)O)c1` (stereo not drawn) [5-carboxy-2-fluoro-alpha-(3-mercaptopropyl)-benzenepropanoic acid] gave an IC50 [5] of 6.33 nM.

In the case of `COc1ccc(C(=O)O)cc1CC(CCCS)C(=O)O` (stereo not drawn) [5-carboxy-alpha-(3-mercaptopropyl)-2-methoxy-benzenepropanoic acid], the IC50 [5] is reported as 26 nM.

Work on `O=C(O)c1ccc([N+](=O)[O-])c(CC(CCCS)C(=O)O)c1` (stereo not drawn) [5-carboxy-alpha-(3-mercaptopropyl)-2-nitro-benzenepropanoic acid] yielded an IC50 [5] of 8.25 nM.

Work on `O=C(O)c1cc(O)ccc1CCS` [5-hydroxy-2-(2-mercaptoethyl)-benzoic acid] yielded an IC50 [5] of 9170 nM.

`O=C(O)C(CCCS)Sc1ccccc1` (stereo not drawn) [5-mercapto-2-(phenylthio)-pentanoic acid] showed an IC50 [5] of 297 nM.

For `O=C(O)C(CCCS)Oc1ccccc1` (stereo not drawn) [5-mercapto-2-phenoxy-pentanoic acid], the IC50 [5] was 555 nM.

With `O=C(O)c1cc(CS)cc(C(=O)O)c1` [5-mercaptomethyl-1,3-benzenedicarboxylic acid] the Ki [5] was 6500 nM.

`O=C(O)c1cc(C(=O)O)cc(P(=O)(O)O)c1` [5-phosphono-1,3-benzenedicarboxylic acid] showed a Ki [5] of 14000 nM.

`O=C(O)c1cc(CP(=O)(O)O)cc(C(=O)O)c1` [5-phosphonomethyl-1,3-benzenedicarboxylic acid] gave a Ki [5] of 3100 nM.

`O=C(NO)c1ccc(O)c(C(=O)O)c1` [6,N-Dihydroxy-isophthalamic acid] showed an IC50 [5] of at least 100000 nM.

Work on `O=C(O)c1cccc(CC(CCCS)C(=O)O)c1-c1ccccc1` (stereo not drawn) [6-(2-carboxy-5-mercaptopentyl)-[1,1′-biphenyl]-2-carboxylic acid] yielded an IC50 [5] of 70 nM.

Compound `COC(=O)c1cc(C(=O)NO)ccc1OCc1ccccc1` [6-Benzyloxy-N-hydroxy-isophthalamic acid methyl ester] has an IC50 [5] of at least 100000 nM.

For `O=C(NO)c1ccc(OCc2ccccc2)c(C(=O)O)c1` [6-Benzyloxy-N-hydroxy-isophthalamic acid], the IC50 [5] was at least 100000 nM.

For `CC12CC3CC(C)(C1)CC(N)(C3)C2` [Memantine, memantine], the “effect on the development of morphine tolerance” value ([4]; mouse, in vivo) was “produced an inhibition of morphine tolerance”.

With `CN1CC[C@]23c4c5ccc(O)c4O[C@H]2[C@@H](O)C=C[C@H]3[C@H]1C5` [Morphine] the ED50 ([2]; Mus musculus, sc, read-out: antinociceptive ED50 dose) was 3 mg/kg, the ED50 ([4]; 24 h, read-out: Test #1 ED50 (morphine antinociceptive)) was 1.49 ± 0.26 mg/kg and the ED50 ([4]; 192 h, read-out: Test #2 ED50 (morphine antinociceptive)) was 8.85 ± 2.22 mg/kg.

In the case of `O=C(NO)c1cc(OCC(F)(F)F)ccc1OCC(F)(F)F` [N-Hydroxy-2,5-bis-(2,2,2-trifluoro-ethoxy)-benzamide], the IC50 [5] is reported as at least 100000 nM.

`Cc1ccc(C(=O)c2ccccc2C(=O)NO)cc1` [N-Hydroxy-2-(4-methyl-benzoyl)-benzamide] showed an IC50 [5] of at least 100000 nM.

In the case of `CC(=O)N[C@@H](CC(=O)O)C(=O)N[C@@H](CCC(=O)O)C(=O)O` [NAAG, N-acetyl-aspartyl-glutamate] (Ac-Asp-Glu-OH), the Km [6] is given as 0.54 µM and the EC50 [7] is given as about 26000 nM.

Compound `COc1ccc(OC)c(CC(CCCS)C(=O)O)c1` (stereo not drawn) [alpha-(3-mercaptopropyl)-2,5-dimethoxy-benzenepropanoic acid] has an IC50 [5] of 566 nM.

Work on `O=C(O)C(CCCS)Cc1ccc2ccccc2c1` (stereo not drawn) [alpha-(3-mercaptopropyl)-2-naphthalenepropanoic acid] yielded an IC50 [5] of 1130 nM.

`O=C(O)C(CCCS)Cc1cccc(C(F)(F)F)c1` (stereo not drawn) [alpha-(3-mercaptopropyl)-3-(trifluoromethyl)-benzenepropanoic acid] gave an IC50 [5] of 4000 nM.

In the case of `O=C(NCc1ccccc1)c1cccc(CC(CCCS)C(=O)O)c1` (stereo not drawn) [alpha-(3-mercaptopropyl)-3-[[(phenylmethyl)amino]carbonyl]-benzenepropanoic acid], the IC50 [5] is reported as 1130 nM.

`O=C(O)C(CCCS)Cc1cccc(Oc2ccccc2)c1` (stereo not drawn) [alpha-(3-mercaptopropyl)-3-phenoxy-benzenepropanoic acid] showed an IC50 [5] of 308 nM.

In the case of `O=C(O)C(CCCS)Cc1cccc(-c2ccccc2)c1` (stereo not drawn) [alpha-(3-mercaptopropyl)-3-phenyl-benzenepropanoic acid], the IC50 [5] is reported as 181 nM.

Work on `CS(=O)(=O)c1ccc(CC(CCCS)C(=O)O)cc1` (stereo not drawn) [alpha-(3-mercaptopropyl)-4-(methylsulfonyl)-benzenepropanoic acid] yielded an IC50 [5] of 211 nM.

With `O=C(O)C(CCCS)Cc1ccc(-c2ccccc2)cc1` (stereo not drawn) [alpha-(3-mercaptopropyl)-4-phenyl-benzenepropanoic acid] the IC50 [5] was 229 nM.

Compound `O=C(O)C(CCCS)Cc1ccccc1` (stereo not drawn) [alpha-(3-mercaptopropyl)-benzenepropanoic acid] has an IC50 [5] of 2270 nM.
